# Test system: DsBBS2
# Assay: HPLC of resveratrol formed, nonlinear curve fitting
# Type: biochemical, Dendrobium sinense
# Details: 0.5 mM malonyl-CoA, 50 mM Hepes, 37 °C, 30 min; p-coumaroyl-CoA 0.5-5.0 mM
smiles,measurement,value
CC(C)(COP(=O)(O)OP(=O)(O)OC[C@H]1O[C@@H](n2cnc3c(N)ncnc32)[C@H](O)[C@@H]1OP(=O)(O)O)[C@@H](O)C(=O)NCCC(=O)NCCSC(=O)/C=C/c1ccc(O)cc1 [p-coumaroyl-CoA],Km,2050 ± 310 µM

# — paper PMC11314366, “Unveiling the Catalytic Roles of DsBBS1 and DsBBS2 in the Bibenzyl Biosynthesis of Dendrobium sinense” (Molecules, 2024)
